The values that follow come from ChEMBL document CHEMBL1770065, “Discovery of a clinical candidate from the structurally unique dioxa-bicyclo[3.2.1]octane class of sodium-dependent glucose cotransporter 2 inhibitors” (J Med Chem, 2011).

Data set [1] addresses T1, Solute carrier family 22 member 6 (Homo sapiens, UniProt Q4U2R8).
T1 sequence (Q4U2R8 whole entry): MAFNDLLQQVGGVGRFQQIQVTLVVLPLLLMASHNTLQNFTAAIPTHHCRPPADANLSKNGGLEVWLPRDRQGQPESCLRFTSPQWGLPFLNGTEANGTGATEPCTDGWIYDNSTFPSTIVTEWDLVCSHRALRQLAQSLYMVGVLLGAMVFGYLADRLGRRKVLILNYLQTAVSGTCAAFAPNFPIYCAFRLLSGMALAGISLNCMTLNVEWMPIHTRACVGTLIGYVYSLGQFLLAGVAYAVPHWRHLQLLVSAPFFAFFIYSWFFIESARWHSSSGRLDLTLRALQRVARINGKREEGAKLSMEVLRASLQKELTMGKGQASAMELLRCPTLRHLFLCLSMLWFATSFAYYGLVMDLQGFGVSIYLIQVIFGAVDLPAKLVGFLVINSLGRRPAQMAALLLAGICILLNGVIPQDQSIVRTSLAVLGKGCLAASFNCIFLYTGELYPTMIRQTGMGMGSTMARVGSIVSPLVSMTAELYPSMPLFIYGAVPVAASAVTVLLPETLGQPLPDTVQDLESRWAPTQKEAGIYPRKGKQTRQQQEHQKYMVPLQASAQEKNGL
Nature of the data set: Inhibition of human OAT1.

Data set [2] in a line: Lipophilicity, log D of the compound. The format is physicochemical. The following applies: octanol/water.
The target of data set [3] is T2, Solute carrier family 22 member 2 (Rattus norvegicus, UniProt Q9R0W2).
T2 sequence (Q9R0W2 whole entry): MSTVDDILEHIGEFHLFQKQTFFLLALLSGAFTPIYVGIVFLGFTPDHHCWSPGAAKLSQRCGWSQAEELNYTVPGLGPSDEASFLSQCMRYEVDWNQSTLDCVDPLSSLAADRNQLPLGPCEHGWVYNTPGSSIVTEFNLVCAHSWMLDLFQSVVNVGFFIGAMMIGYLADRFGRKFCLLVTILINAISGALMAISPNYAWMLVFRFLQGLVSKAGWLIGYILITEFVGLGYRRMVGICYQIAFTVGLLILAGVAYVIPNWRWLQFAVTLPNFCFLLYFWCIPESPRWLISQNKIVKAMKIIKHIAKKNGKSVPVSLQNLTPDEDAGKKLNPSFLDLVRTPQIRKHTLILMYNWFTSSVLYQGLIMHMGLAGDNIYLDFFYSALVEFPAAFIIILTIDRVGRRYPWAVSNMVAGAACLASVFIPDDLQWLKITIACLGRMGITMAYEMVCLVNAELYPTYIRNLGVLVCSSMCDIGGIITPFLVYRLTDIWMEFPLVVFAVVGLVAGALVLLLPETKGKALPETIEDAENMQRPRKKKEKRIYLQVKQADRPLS
In words: Inhibition of rat OCT2 expressed in HEK293 cells. It is filed as cell-based.

In a further data set the test system is Rattus norvegicus. Nature of the data set: fAUC (0 to 24 hrs) in Sprague-Dawley rat at 30 mg/kg, po after 24 hrs. It is filed as ADME, organism-based. On the set-up: dose 30 mg/kg, route oral. As to conditions: in vivo; call rule not given here.
Data set [4] deals with T3, Sodium/glucose cotransporter 2 (Homo sapiens, UniProt P31639).
T3 sequence (P31639 whole entry): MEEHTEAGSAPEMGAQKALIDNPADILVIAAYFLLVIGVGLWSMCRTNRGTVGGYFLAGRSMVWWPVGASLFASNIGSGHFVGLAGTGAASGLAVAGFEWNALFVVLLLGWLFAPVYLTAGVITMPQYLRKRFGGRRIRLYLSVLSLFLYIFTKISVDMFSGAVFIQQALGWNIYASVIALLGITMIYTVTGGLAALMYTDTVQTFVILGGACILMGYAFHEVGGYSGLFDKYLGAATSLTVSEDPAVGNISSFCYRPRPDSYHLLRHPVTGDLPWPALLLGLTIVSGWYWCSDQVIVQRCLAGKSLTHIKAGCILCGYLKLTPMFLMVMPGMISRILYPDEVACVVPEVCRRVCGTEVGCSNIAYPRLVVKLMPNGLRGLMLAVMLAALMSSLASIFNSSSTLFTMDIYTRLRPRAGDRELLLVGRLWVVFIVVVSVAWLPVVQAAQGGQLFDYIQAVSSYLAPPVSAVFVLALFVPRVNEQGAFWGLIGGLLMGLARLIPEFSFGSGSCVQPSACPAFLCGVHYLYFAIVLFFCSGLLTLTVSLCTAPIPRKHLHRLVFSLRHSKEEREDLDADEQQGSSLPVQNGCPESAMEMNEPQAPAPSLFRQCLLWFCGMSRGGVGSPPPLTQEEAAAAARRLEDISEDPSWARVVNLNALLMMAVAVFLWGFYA
In words: Inhibition of human SGLT2 expressed in CHO cells assessed as inhibition of methyl alpha-D-glucopyranoside uptake after 1 hr. It is filed as cell-based.

Take `CCOc1ccc(Cc2cc([C@]34OC[C@](CO)(O3)[C@@H](O)[C@H](O)[C@H]4O)ccc2Cl)cc1` [ERTUGLIFLOZIN]: the “inhibition (INH)” value in data set [1] and in data set [3] was “Not Active” each time. Moreover, the logD (as a rule, lipophilicity at a set pH, counting ionised and neutral species) in data set [2] was found to be 3.6. In addition, the fAUC in the data set with Rattus norvegicus was found to be 4280 ng·h/mL. For the same compound, the 50% inhibitory concentration (IC50) (as a rule, the concentration that inhibits the measured activity by half) in data set [4] turned out to be 0.877 nM.
